Measurements: patent publication US11419852B2, “Beta-lactam compounds or salts thereof for use in long-acting prevention or treatment of a glucose metabolism disorder” (GLYCOLYSIS BIOMED CO., LTD., priority 2019, dated 2022)
Marks after values point to notes of the source that are not given here.

What was measured:
Type in all cases: in vivo
[1] = Body weight of mice recorded weekly
Method: (§1) Four to five weeks old db/db mice (BKS.Cg-Dock7^m+/+Lepr^db/JNarl) and m/m mice (BKS.Cg-Dock7^m+/Dock7^m+) were obtained from National Laboratory Animal Center ([…], Taiwan). […] PMI Nutrition International, Brentwood, Mo.) and water ad libitum. […] The mouse body weight (bw) and the amounts of water and food intake were recorded weekly for the entire study period.

[2] = Food and water intake of mice
Method: as §1

db/db mice = test: Oral glucose tolerance test (OGTT); details: for Level of OGTT (blood glucose): Ex 2 G4 db/db, DMH i.p. 0.1 mg/g bw/day, dosing 6 weeks
Method: Four to five weeks old db/db mice (BKS.Cg-Dock7^m+/+Lepr^db/JNarl) and m/m mice (BKS.Cg-Dock7^m+/Dock7^m+) were obtained from National Laboratory Animal Center ([…], Taiwan). […] PMI Nutrition International, Brentwood, Mo.) and water ad libitum. […] Blood was sampled from the tail vein, and FPG levels were measured and recorded as the basic blood glucose levels. […] The total area under the curve (AUC) in OGTT was plotted and calculated by the Area Under Coordinates Program (StatsToDo Server, Department of Obstetrics and Gynecology, Chinese University of Hong Kong).

[3] = Ex 1: db/db mice, ertapenem i.p. 0.41 mg/g bw/day, 3 weeks
[4] = Ex 3: db/db mice, daily dosing 3 weeks at doses of Table 10

C[C@@H](O)[C@H]1C(=O)N2C(C(=O)O)=C(S[C@@H]3CN[C@H](C(=O)Nc4cccc(C(=O)O)c4)C3)[C@H](C)[C@H]12 [DMH, ertapenem]
Effect on body weight in db/db mice ([1]; Ex 2, 0.1 mg/g bw and 0.4 mg/g bw): positive effects of body weight lowering | Body weight ([1]; Ex 2 G3 db/db, 0.3 mg/g bw/day (row printed 0.3 DMH), dosing 6 weeks, week 14): 43.94 ± 1.54^b | Body weight ([1]; Ex 2 G3 db/db, 0.3 mg/g bw/day (row printed 0.3 DMH), dosing 6 weeks, week 15): 46.46 ± 1.39^b | Body weight ([1]; Ex 2 G3 db/db, 0.3 mg/g bw/day (row printed 0.3 DMH), dosing 6 weeks, week 16): 47.68 ± 1.32^b | Body weight ([1]; Ex 2 G3 db/db, 0.3 mg/g bw/day (row printed 0.3 DMH), dosing 6 weeks, week 17): 48.31 ± 1.38^b | Body weight ([1]; Ex 2 G3 db/db, 0.3 mg/g bw/day (row printed 0.3 DMH), dosing 6 weeks, week 18): 49.57 ± 1.47^b | Body weight ([1]; Ex 2 G3 db/db, 0.3 mg/g bw/day (row printed 0.3 DMH), dosing 6 weeks, week 19): 51.98 ± 1.66^b | Body weight ([1]; Ex 2 G4 db/db, DMH i.p. 0.1 mg/g bw/day, dosing 6 weeks, Baseline): 29.44 ± 2.09^b | Body weight ([1]; Ex 2 G4 db/db, DMH i.p. 0.1 mg/g bw/day, dosing 6 weeks, week 1): 29.21 ± 2.01^b | Body weight ([1]; Ex 2 G4 db/db, DMH i.p. 0.1 mg/g bw/day, dosing 6 weeks, week 2): 29.95 ± 1.79^b | Body weight ([1]; Ex 2 G4 db/db, DMH i.p. 0.1 mg/g bw/day, dosing 6 weeks, week 3): 32.38 ± 1.38^b | Body weight ([1]; Ex 2 G4 db/db, DMH i.p. 0.1 mg/g bw/day, dosing 6 weeks, week 4): 33.49 ± 1.13^b | Body weight ([1]; Ex 2 G4 db/db, DMH i.p. 0.1 mg/g bw/day, dosing 6 weeks, week 5): 35.72 ± 1.01^b | Body weight ([1]; Ex 2 G4 db/db, DMH i.p. 0.1 mg/g bw/day, dosing 6 weeks, week 6): 36.73 ± 0.95^b | Body weight ([1]; Ex 2 G4 db/db, DMH i.p. 0.1 mg/g bw/day, dosing 6 weeks, week 7): 36.68 ± 0.83^b | Body weight ([1]; Ex 2 G4 db/db, DMH i.p. 0.1 mg/g bw/day, dosing 6 weeks, week 8): 37.83 ± 0.77^b | Body weight ([1]; Ex 2 G4 db/db, DMH i.p. 0.1 mg/g bw/day, dosing 6 weeks, week 9): 38.46 ± 0.8^b | Body weight ([1]; Ex 2 G4 db/db, DMH i.p. 0.1 mg/g bw/day, dosing 6 weeks, week 10): 39.43 ± 0.81^b | Body weight ([1]; Ex 2 G4 db/db, DMH i.p. 0.1 mg/g bw/day, dosing 6 weeks, week 11): 40.86 ± 0.82^b | Body weight ([1]; Ex 2 G4 db/db, DMH i.p. 0.1 mg/g bw/day, dosing 6 weeks, week 12): 42.59 ± 0.87^b | Body weight ([1]; Ex 2 G4 db/db, DMH i.p. 0.1 mg/g bw/day, dosing 6 weeks, week 13): 44.21 ± 0.99^b | Body weight ([1]; Ex 2 G4 db/db, DMH i.p. 0.1 mg/g bw/day, dosing 6 weeks, week 14): 43.56 ± 1.08^b | Body weight ([1]; Ex 2 G4 db/db, DMH i.p. 0.1 mg/g bw/day, dosing 6 weeks, week 15): 45.90 ± 1.18^b | Body weight ([1]; Ex 2 G4 db/db, DMH i.p. 0.1 mg/g bw/day, dosing 6 weeks, week 16): 46.80 ± 1.29^b | Body weight ([1]; Ex 2 G4 db/db, DMH i.p. 0.1 mg/g bw/day, dosing 6 weeks, week 17): 47.21 ± 1.26^b | Body weight ([1]; Ex 2 G4 db/db, DMH i.p. 0.1 mg/g bw/day, dosing 6 weeks, week 18): 48.14 ± 1.23^b | Body weight ([1]; Ex 2 G4 db/db, DMH i.p. 0.1 mg/g bw/day, dosing 6 weeks, week 19): 50.91 ± 1.22^b | Body weight ([1]; Ex 2 G5 db/db, DMH i.p. 0.2 mg/g bw/day, dosing 6 weeks, Baseline): 31.70 ± 1.46^b | Body weight ([1]; Ex 2 G5 db/db, DMH i.p. 0.2 mg/g bw/day, dosing 6 weeks, week 1): 31.31 ± 1.48^b | Body weight ([1]; Ex 2 G5 db/db, DMH i.p. 0.2 mg/g bw/day, dosing 6 weeks, week 2): 31.81 ± 1.12^bc | Body weight ([1]; Ex 2 G5 db/db, DMH i.p. 0.2 mg/g bw/day, dosing 6 weeks, week 3): 34.36 ± 0.75^bc | Body weight ([1]; Ex 2 G5 db/db, DMH i.p. 0.2 mg/g bw/day, dosing 6 weeks, week 4): 35.55 ± 0.61^bc | Body weight ([1]; Ex 2 G5 db/db, DMH i.p. 0.2 mg/g bw/day, dosing 6 weeks, week 5): 37.76 ± 0.49^bc | Body weight ([1]; Ex 2 G5 db/db, DMH i.p. 0.2 mg/g bw/day, dosing 6 weeks, week 6): 39.06 ± 0.54^bc | Body weight ([1]; Ex 2 G5 db/db, DMH i.p. 0.2 mg/g bw/day, dosing 6 weeks, week 7): 39.07 ± 0.45^bc | Body weight ([1]; Ex 2 G5 db/db, DMH i.p. 0.2 mg/g bw/day, dosing 6 weeks, week 8): 39.99 ± 0.39^bc | Body weight ([1]; Ex 2 G5 db/db, DMH i.p. 0.2 mg/g bw/day, dosing 6 weeks, week 9): 40.63 ± 0.27^bcd | Body weight ([1]; Ex 2 G5 db/db, DMH i.p. 0.2 mg/g bw/day, dosing 6 weeks, week 10): 41.39 ± 0.29^b | Body weight ([1]; Ex 2 G5 db/db, DMH i.p. 0.2 mg/g bw/day, dosing 6 weeks, week 11): 42.98 ± 0.35^b | Body weight ([1]; Ex 2 G5 db/db, DMH i.p. 0.2 mg/g bw/day, dosing 6 weeks, week 12): 44.66 ± 0.38^b | Body weight ([1]; Ex 2 G5 db/db, DMH i.p. 0.2 mg/g bw/day, dosing 6 weeks, week 13): 46.52 ± 0.45^b | Body weight ([1]; Ex 2 G5 db/db, DMH i.p. 0.2 mg/g bw/day, dosing 6 weeks, week 14): 46.10 ± 0.51^b | Body weight ([1]; Ex 2 G5 db/db, DMH i.p. 0.2 mg/g bw/day, dosing 6 weeks, week 15): 48.58 ± 0.55^b | Body weight ([1]; Ex 2 G5 db/db, DMH i.p. 0.2 mg/g bw/day, dosing 6 weeks, week 16): 49.65 ± 0.63^b | Body weight ([1]; Ex 2 G5 db/db, DMH i.p. 0.2 mg/g bw/day, dosing 6 weeks, week 17): 49.96 ± 0.68^b | Body weight ([1]; Ex 2 G5 db/db, DMH i.p. 0.2 mg/g bw/day, dosing 6 weeks, week 18): 50.71 ± 0.87^b | Body weight ([1]; Ex 2 G5 db/db, DMH i.p. 0.2 mg/g bw/day, dosing 6 weeks, week 19): 52.73 ± 1.04^b | Body weight ([1]; Ex 2 G6 db/db, DMH i.p. 0.4 mg/g bw/day, dosing 6 weeks, Baseline): 31.61 ± 1.03^b | Body weight ([1]; Ex 2 G6 db/db, DMH i.p. 0.4 mg/g bw/day, dosing 6 weeks, week 1): 31.23 ± 0.98^b | Body weight ([1]; Ex 2 G6 db/db, DMH i.p. 0.4 mg/g bw/day, dosing 6 weeks, week 2): 31.62 ± 0.77^bc | Body weight ([1]; Ex 2 G6 db/db, DMH i.p. 0.4 mg/g bw/day, dosing 6 weeks, week 3): 33.98 ± 0.54^b | Body weight ([1]; Ex 2 G6 db/db, DMH i.p. 0.4 mg/g bw/day, dosing 6 weeks, week 4): 34.29 ± 0.59^b | Body weight ([1]; Ex 2 G6 db/db, DMH i.p. 0.4 mg/g bw/day, dosing 6 weeks, week 5): 36.44 ± 0.71^b | Body weight ([1]; Ex 2 G6 db/db, DMH i.p. 0.4 mg/g bw/day, dosing 6 weeks, week 6): 37.16 ± 0.8^b | Body weight ([1]; Ex 2 G6 db/db, DMH i.p. 0.4 mg/g bw/day, dosing 6 weeks, week 7): 37.16 ± 0.93^b | Body weight ([1]; Ex 2 G6 db/db, DMH i.p. 0.4 mg/g bw/day, dosing 6 weeks, week 8): 38.67 ± 1.24^b | Body weight ([1]; Ex 2 G6 db/db, DMH i.p. 0.4 mg/g bw/day, dosing 6 weeks, week 9): 39.72 ± 1.36^bc | Body weight ([1]; Ex 2 G6 db/db, DMH i.p. 0.4 mg/g bw/day, dosing 6 weeks, week 10): 40.81 ± 1.34^b | Body weight ([1]; Ex 2 G6 db/db, DMH i.p. 0.4 mg/g bw/day, dosing 6 weeks, week 11): 42.61 ± 1.31^b | Body weight ([1]; Ex 2 G6 db/db, DMH i.p. 0.4 mg/g bw/day, dosing 6 weeks, week 12): 44.54 ± 1.63^b | Body weight ([1]; Ex 2 G6 db/db, DMH i.p. 0.4 mg/g bw/day, dosing 6 weeks, week 13): 45.69 ± 1.86^b | Body weight ([1]; Ex 2 G6 db/db, DMH i.p. 0.4 mg/g bw/day, dosing 6 weeks, week 14): 45.08 ± 1.89^b | Body weight ([1]; Ex 2 G6 db/db, DMH i.p. 0.4 mg/g bw/day, dosing 6 weeks, week 15): 47.29 ± 1.95^b | Body weight ([1]; Ex 2 G6 db/db, DMH i.p. 0.4 mg/g bw/day, dosing 6 weeks, week 16): 48.79 ± 1.95^b | Body weight ([1]; Ex 2 G6 db/db, DMH i.p. 0.4 mg/g bw/day, dosing 6 weeks, week 17): 48.99 ± 1.87^b | Body weight ([1]; Ex 2 G6 db/db, DMH i.p. 0.4 mg/g bw/day, dosing 6 weeks, week 18): 50.70 ± 1.87^b | Body weight ([1]; Ex 2 G6 db/db, DMH i.p. 0.4 mg/g bw/day, dosing 6 weeks, week 19): 53.56 ± 1.99^b | Body weight ([1]; Ex 3: db/db mice, daily dosing 3 weeks at doses of Table 10, Baseline): 29.3 ± 1^b | Body weight ([1]; Ex 3: db/db mice, daily dosing 3 weeks at doses of Table 10, Final): 38.3 ± 1^c | Body weight ([1]; Ex 3: db/db mice, daily dosing 3 weeks at doses of Table 10, Week 3): 33.5 ± 1^cd | Body weight ([1]; Ex 3: db/db mice, daily dosing 3 weeks at doses of Table 10, Week 6 (stopped for 3 weeks)): 35.1 ± 1^b | Body weight ([1]; Ex 3: db/db mice, daily dosing 3 weeks at doses of Table 10, Week 9 (stopped for 6 weeks)): 40.0 ± 1^c | Food and water intake vs DB group ([2]; Ex 1: db/db mice, 0.41 mg/g bw/day i.p., entire study period, P<0.05): reduced | Diet intake [2, 3]: 5.0 ± 0.9 g/mice/day | Water intake [2, 3]: 6.8 ± 1.6 mL/mice/day | Food intake in db/db mice ([2]; Ex 3, P<0.05): significantly reduced | Water intake in db/db mice ([2]; Ex 3, P<0.05): significantly reduced | Diet intake [2, 4]: 5.2 ± 1^b g/mice/day | Water intake [2, 4]: 8.4 ± 1^c mL/mice/day | OGTT AUC vs untreated mice (DB group) (db/db mice; Ex 1, week 3, P<0.05): significantly smaller | Glucose concentration in OGTT vs DB group (db/db mice; Ex 1, week 3, time points of 90 min and 120 min (FIG. 1)): significantly lower | OGTT AUC (db/db mice; [3]): 1298 ± 186 | OGTT AUCs vs metformin-treated (G3) and untreated db/db mice (G2) (db/db mice; Ex 2, G4 and G5, weeks 6, 12, and 16, P<0.05): significantly smaller | Oral glucose tolerance of db/db mice after stop (db/db mice; Ex 2, after the treatment had been stopped for 10 weeks): effectively increased | Oral glucose tolerance (OGT) of db/db mice (db/db mice; Ex 2, most time points (ertapenem: weeks 6 and 12)): significantly increased | Level of OGTT (blood glucose) (db/db mice; Week 6, 0 min): 219 ± 36 mg/dL | Level of OGTT (blood glucose) (db/db mice; Week 6, 15 min): 866 ± 38^bc | Level of OGTT (blood glucose) (db/db mice; Week 6, 30 min): 671 ± 62 mg/dL
